Test results taken from patent publication US11673910B2, “Macrolides with modified desosamine sugars and uses thereof” (Zikani Therapeutics, Inc., priority 2017, dated 2023).
≈ marks a conversion by molar mass, not a printed value.

How the values were obtained:
Format in all cases: cell-based
E. coli strain MP-4 = experiment: Broth dilution MIC determination (CLSI) against E. coli strain MP-4; settings: Escherichia coli, MP4
Procedure, shortened: (§1)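 MICs were determined by CLSI standard broth dilution. Values are binned: "+++" ≤4 mg/L, "++" ≥8 and <32 mg/L, "+" ≥32 mg/L.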

[1] = test system: K. pneumoniae strain MP-548; experiment: Broth dilution MIC determination (CLSI) against K. pneumoniae strain MP-548; settings: Klebsiella pneumoniae, MP548
Procedure, shortened: as §1

[2] = test system: P. aeruginosa strain MP-3; experiment: Broth dilution MIC determination (CLSI) against P. aeruginosa strain MP-3; settings: Pseudomonas aeruginosa, MP3
Procedure, shortened: as §1

[3] = test system: A. baumannii strain MP-15; experiment: Broth dilution MIC determination (CLSI) against A. baumannii strain MP-15; settings: Acinetobacter baumannii, MP15
Procedure, shortened: as §1

S. aureus strain MP-12 = experiment: Broth dilution MIC determination (CLSI) against S. aureus strain MP-12; settings: Staphylococcus aureus, MP12, strain MP-12
Procedure, shortened: as §1

SMILES | MIC (E. coli strain MP-4) [µg/mL] | MIC [1] [µg/mL] | MIC [2] [µg/mL] | MIC [3] [µg/mL] | MIC (S. aureus strain MP-12) [µg/mL]
CC[C@H]1OC(=O)C(C)C(=O)[C@H](C)[C@@H](OC2OC(C(=O)N(C)C)CC(N(C)C)C2O)[C@](C)(OC)C[C@@H](C)CN[C@H](C)[C@H]2NC(=O)O[C@@]21C (stereo partly shown) [Compound 167, 3-Descladinosyl-3-oxo-6-O-methyl-N9a-desmethyl-11,12-dideoxy-12,11-(oxycarbonylimino)-5′-desmethyl-5′-(N,N-dimethylcarboxamido) Azithromycin] | ≥ 32 | ≥ 32 | ≥ 32 | ≥ 32 | ≥ 32
CC[C@H]1OC(=O)[C@]2(C)CC/C(=N\O)CO[C@](C)(C[C@@H](C)CN[C@H](C)[C@H]3NC(=O)O[C@@]31C)[C@H](OC1OC(C)CC(N(C)C)C1O)[C@@H](C)C2=O (stereo partly shown) [Compound 228] | ≥ 32 | ≥ 32 | ≥ 32 | ≥ 32 | ≥ 32
CC[C@H]1OC(=O)C(C)C(=O)[C@H](C)[C@@H](OC2OC(CN3CCC(F)(F)CC3)CC(N(C)C)C2O)[C@](C)(OC)C[C@@H](C)CN[C@H](C)[C@H]2NC(=O)O[C@@]21C (stereo partly shown) [Compound 144, 3-Descladinosyl-3-oxo-6-O-methyl-N9a-desmethyl-11,12-dideoxy-12,11-(oxycarbonylimino)-6′-(4″,4″-difluoropiperidin-1″-yl) Azithromycin] | ≤ 4 | 8 to 32 (≈ 10.9 to 43.7 µM) | ≥ 32 | 8 to 32 (≈ 10.9 to 43.7 µM) | 8 to 32 (≈ 10.9 to 43.7 µM)
CC[C@H]1OC(=O)C(C)C(=O)[C@H](C)[C@@H](OC2OC(CNC3CC3)CC(N(C)C)C2O)[C@](C)(OC)C[C@@H](C)C(=O)N[C@H](C)[C@H]2NC(=O)O[C@@]21C (stereo partly shown) [Compound 189, 3-Descladinosyl-3-oxo-6-O-methyl-8-oxo-N9a-desmethyl-11,12-dideoxy-12,11-(oxycarbonylimino)-6′-cyclopropylamino Azithromycin] | ≥ 32 | ≥ 32 | ≥ 32 | ≥ 32 | ≥ 32
CC[C@H]1OC(=O)[C@@]2(C)CCO[C@](C)(C[C@@H](C)CN[C@H](C)[C@H]3NC(=O)O[C@@]31C)[C@H](O[C@@H]1O[C@H](CNC34CC(C3)C4)C[C@H](N(C)C)[C@H]1O)[C@@H](C)C2=O [Compound 204] | ≤ 4 | ≤ 4 | ≥ 32 | 8 to 32 (≈ 11.3 to 45.3 µM) | ≤ 4
CC[C@H]1OC(=O)C(C)C(=O)[C@H](C)[C@@H](O[C@@H]2OC(CNCc3cccc(C#N)c3)CC(N(C)C)C2O)[C@](C)(OC)C[C@@H](C)CN[C@H](C)[C@H]2NC(=O)O[C@@]21C (stereo partly shown) [Compound 41] | ≤ 4 | ≥ 32 | ≥ 32 | ≥ 32 | ≥ 32
CC[C@H]1OC(=O)C(C)C(=O)[C@H](C)[C@@H](O[C@@H]2O[C@H](CC(C)C)CC(N(C)C)[C@H]2O)[C@](C)(OC)C[C@@H](C)CN[C@H](C)[C@H]2NC(=O)O[C@@]21C (stereo partly shown) [Compound 184, 3-Desdadinosyl-3-oxo-6-O-methyl-N9a-desmethyl-11,12-dideoxy-12,11-(oxycarbonylimino)-6′-isopropyl Azithromycin] | ≤ 4 | 8 to 32 (≈ 12.2 to 48.8 µM) | ≥ 32 | 8 to 32 (≈ 12.2 to 48.8 µM) | ≤ 4
CC[C@H]1OC(=O)C(C)C(=O)[C@H](C)[C@@H](O[C@@H]2O[C@H](CNC3CC3)CC(N(C)C)[C@H]2O)[C@](C)(OC)C[C@@H](C)CN(C)[C@H](C)[C@H]2N(C)C(=O)O[C@]12C (stereo partly shown) [Compound 191] | ≤ 4 | 8 to 32 (≈ 11.5 to 45.9 µM) | ≥ 32 | ≥ 32 | ≥ 32
CC[C@H]1OC(=O)C(C)C(=O)[C@H](C)[C@@H](O[C@@H]2OC(CNCc3ccc(F)cc3F)CC(N(C)C)C2O)[C@](C)(OC)C[C@@H](C)CN[C@H](C)[C@H]2NC(=O)O[C@@]21C (stereo partly shown) [Compound 31] | ≤ 4 | ≥ 32 | ≥ 32 | ≥ 32 | ≥ 32
CC[C@H]1OC(=O)C(C)C(=O)[C@H](C)[C@@H](O[C@@H]2OC(CNCc3ccc(OC)cc3)CC(N(C)C)C2O)[C@](C)(OC)C[C@@H](C)CN[C@H](C)[C@H]2NC(=O)O[C@@]21C (stereo partly shown) [Compound 42] | ≤ 4 | ≥ 32 | ≥ 32 | ≥ 32 | ≥ 32
CC[C@H]1OC(=O)C(C)C(=O)[C@H](C)[C@@H](OC2OC(C(O)CNC3CC3)CC(N(C)C)C2O)[C@](C)(OC)C[C@@H](C)CN[C@H](C)[C@H]2NC(=O)O[C@@]21C (stereo partly shown) [Compound 188, 3-Descladinosyl-3-oxo-6-O-methyl-8-oxo-N9a-desmethyl-11,12-dideoxy-12,11-(oxycarbonylimino)-6′-hydroxy-6′-cyclopropylaminomethyl Azithromycin] | ≥ 32 | ≥ 32 | ≥ 32 | ≥ 32 | ≥ 32
CC[C@H]1OC(=O)C(C)C(=O)[C@H](C)[C@@H](OC2OC(CNC34CC(C3)C4)CC(N(C)C)C2O)[C@](C)(OC)C[C@@H](C)CN[C@H](C)[C@H]2NC(=O)O[C@@]21C (stereo partly shown) [Compound 141, 3-Descladinosyl-3-oxo-6-O-methyl-N9a-desmethyl-11,12-dideoxy-12,11-(oxycarbonylimino)-6′-(bicyclo[1.1.1]pentanylamino) Azithromycin] | ≤ 4 | ≤ 4 | ≥ 32 | 8 to 32 (≈ 11.5 to 46 µM) | 8 to 32 (≈ 11.5 to 46 µM)

Other lines, results leading:

MIC (E. coli strain MP-4) [µg/mL] | MIC [1] [µg/mL] | MIC [2] [µg/mL] | MIC [3] [µg/mL] | MIC (S. aureus strain MP-12) [µg/mL] | SMILES
8 to 32 (≈ 9.84 to 39.4 µM) | ≥ 32 | ≥ 32 | ≥ 32 | ≥ 32 | CC[C@H]1OC(=O)C(C)C(=O)[C@H](C)[C@@H](O[C@@H]2OC(CNCc3cccc(Oc4cnccn4)c3)CC(N(C)C)C2O)[C@](C)(OC)C[C@@H](C)CN[C@H](C)[C@H]2NC(=O)O[C@@]21C (stereo partly shown) [Compound 22]
8 to 32 (≈ 11 to 43.8 µM) | ≥ 32 | ≥ 32 | ≥ 32 | ≥ 32 | CC[C@H]1OC(=O)C(C)C(=O)[C@H](C)[C@@H](O[C@@H]2OC(CNc3ccc(C#N)cc3)CC(N(C)C)C2O)[C@](C)(OC)C[C@@H](C)CN[C@H](C)[C@H]2NC(=O)O[C@@]21C (stereo partly shown) [Compound 50]
≤ 4 | 8 to 32 (≈ 11.7 to 46.7 µM) | ≥ 32 | ≥ 32 | ≥ 32 | CC[C@H]1OC(=O)C(C)C(=O)[C@H](C)[C@@H](OC2OC(CN(C)CC)CC(N(C)C)C2O)[C@](C)(OC)C[C@@H](C)CN(C)[C@H](C)[C@H]2NC(=O)O[C@@]21C (stereo partly shown) [Compound 158, 3-Descladinosyl-3-oxo-6-O-methyl-11,12-dideoxy-12,11-(oxycarbonylimino)-6′-ethylmethylamino Azithromycin]
8 to 32 (≈ 11.9 to 47.6 µM) | 8 to 32 (≈ 11.9 to 47.6 µM) | ≥ 32 | ≥ 32 | ≥ 32 | CC[C@H]1OC(=O)C(C)C(=O)[C@H](C)[C@@H](OC2OC(CN(C)OC)CC(N(C)C)C2O)[C@](C)(OC)C[C@@H](C)CN[C@H](C)[C@H]2NC(=O)O[C@@]21C (stereo partly shown) [Compound 145]
≥ 32 | ≥ 32 | ≥ 32 | ≥ 32 | ≥ 32 | CC[C@H]1OC(=O)C(C)C(=O)[C@H](C)[C@@H](O[C@@H]2OC(CNCc3cn(-c4cncnc4)nn3)CC(N(C)C)C2O)[C@](C)(OC)C[C@@H](C)CN[C@H](C)[C@H]2NC(=O)O[C@@]21C (stereo partly shown) [Compound 24]
≤ 4 | 8 to 32 (≈ 10.9 to 43.4 µM) | ≥ 32 | ≥ 32 | ≥ 32 | CC[C@H]1OC(=O)C(C)C(=O)[C@H](C)[C@@H](O[C@@H]2OC(CNCc3ccc(F)cc3)CC(N(C)C)C2O)[C@](C)(OC)C[C@@H](C)CN[C@H](C)[C@H]2NC(=O)O[C@@]21C (stereo partly shown) [Compound 18]
≤ 4 | ≥ 32 | ≥ 32 | ≥ 32 | ≥ 32 | CC[C@H]1OC(=O)C(C)C(=O)[C@H](C)[C@@H](O[C@@H]2OC(CN[C@@H](C)c3ccc(F)cc3)CC(N(C)C)C2O)[C@](C)(OC)C[C@@H](C)CN[C@H](C)[C@H]2NC(=O)O[C@@]21C (stereo partly shown) [Compound 32]
≥ 32 | ≥ 32 | ≥ 32 | ≥ 32 | ≥ 32 | CC[C@H]1OC(=O)C(C)C(=O)[C@H](C)[C@@H](OC2OC(CNCCS(C)(=O)=O)CC(N(C)C)C2O)[C@](C)(OC)C[C@@H](C)CN[C@H](C)[C@H]2NC(=O)O[C@@]21C (stereo partly shown) [Compound 140, 3-Descladinosyl-3-oxo-6-O-methyl-N9a-desmethyl-11,12-dideoxy-12,11-(oxycarbonylimino)-6′-2″-(methylsulfonyl)ethan-1″-amino Azithromycin]
